Results published in ChEMBL document CHEMBL5126503, “Renieramycin-type alkaloids from marine-derived organisms: Synthetic chemistry, biological activity and structural modification” (Eur J Med Chem, 2021).
Counter-ions that a name gives are not always drawn. Blank lines part the entries; values can stand above or below the molecule they belong to.

Experiments:
A549 [1] = test: Cytotoxicity against human A549 cells assessed as cell growth inhibition by SRB assay; format: functional, cell-based
HL-60 = test: Cytotoxicity against human HL-60 cells assessed as cell growth inhibition by MTT assay; format: functional, cell-based
[2] = Cytotoxicity against human HEK293 cells assessed as cell growth inhibition; format: toxicity, cell-based
HCT-116 [3] = test: Cytotoxicity against human HCT-116 cells assessed as cell growth inhibition; format: functional, cell-based
QG-56 [4] = test: Cytotoxicity against human QG-56 cells assessed as cell growth inhibition; format: functional, cell-based
DU-145 [5] = test: Cytotoxicity against human DU-145 cells assessed as cell growth inhibition; format: functional, cell-based
QG-56 [6] = test: Cytotoxicity against human QG-56 cells assessed as cell growth inhibition incubated for 4 days by Cell counting kit-8 assay; format: functional, cell-based; conditions: QG-56, 96 h
HCT-116 [7] = test: Cytotoxicity against human HCT-116 cells assessed as cell growth inhibition incubated for 4 days by Cell counting kit-8 assay; format: functional, cell-based; conditions: HCT-116, 96 h
ASPC1 = test: Cytotoxicity against human ASPC1 cells assessed as cell growth inhibition; format: functional, cell-based
T47D = test: Cytotoxicity against human T47D cells assessed as cell growth inhibition; format: functional, cell-based
A549 [8] = test: Cytotoxicity against human A549 cells assessed as cell growth inhibition; format: functional, cell-based
DU-145 [9] = test: Cytotoxicity against human DU-145 cells assessed as cell growth inhibition incubated for 4 days by Cell counting kit-8 assay; format: functional, cell-based; conditions: DU-145, 96 h
HCT-116 [10] = test: Antiproliferative activity against human HCT-116 cells assessed as cell growth inhibition by MTT colorimetric assay; format: functional, cell-based
MDA-MB-435 = test: Antiproliferative activity against human MDA-MB-435 cells assessed as cell growth inhibition by MTT colorimetric assay; format: functional, cell-based
NCI-H292 = test: Antiproliferative activity against human NCI-H292 cells assessed as cell growth inhibition incubated for 4 hrs by MTT assay; format: functional, cell-based; conditions: NCI-H292, 4 h
KB = test: Antiproliferative activity against human KB cells assessed as cell growth inhibition; format: functional, cell-based
MCF7 = test: Antiproliferative activity against human MCF7 cells assessed as cell growth inhibition; format: functional, cell-based
[11] = Antiproliferative activity against human HELF cells assessed as cell growth inhibition; format: toxicity, cell-based
A2780 = test: Antiproliferative activity against human A2780 cells assessed as cell growth inhibition; format: functional, cell-based
Bel-7402 = test: Antiproliferative activity against human Bel-7402 cells assessed as cell growth inhibition; format: functional, cell-based
HeLa = test: Antiproliferative activity against human HeLa cells assessed as cell growth inhibition; format: functional, cell-based
HCT-8 = test: Antiproliferative activity against human HCT-8 cells assessed as cell growth inhibition; format: functional, cell-based
BGC-823 = test: Antiproliferative activity against human BGC-823 cells assessed as cell growth inhibition; format: functional, cell-based
KETR3 = test: Antiproliferative activity against human KETR3 cells assessed as cell growth inhibition; format: functional, cell-based

SMILES: C/C=C(/C)C(=O)OC[C@H]1C2=C(C[C@H]3[C@H]4C5=C(C[C@@H]([C@H](CC(C)=O)N13)N4C)C(=O)C(C)=C(OC)C5=O)C(=O)C(C)=C(OC)C2=O
IC50 (A549 [1]): > 100000 nM
IC50 (HL-60): > 100000 nM
IC50 [2]: 7100 nM

SMILES: COC1=C(C)C(=O)C2=C(C1=O)[C@H](COC(C)=O)N1[C@@H](C2)CN(C)C[C@@H]1C#N
IC50 (HCT-116 [3]): 54 nM
IC50 (QG-56 [4]): 220 nM
IC50 (DU-145 [5]): 990 nM

SMILES: COC1=C(C)C(=O)C2=C(C1=O)[C@H]1CN(Cc3ccccc3)[C@@H](C#N)[C@H](C2)N1C
IC50 (QG-56 [6]): 17 nM
IC50 (HCT-116 [7]): 17 nM

SMILES: C/C=C(/C)C(=O)OC[C@H]1c2c(c(O)c(C)c3c2OCO3)C[C@H]2[C@H]3C4=C(C[C@@H]([C@H](C#N)N12)N3C)C(=O)C(C)=C(OC)C4=O
IC50 (ASPC1): 98 nM
IC50 (T47D): 4.7 nM
IC50 (HCT-116 [3]): 39 nM
IC50 (QG-56 [4]): 77 nM

SMILES: COc1cccc2c1C(=O)c1c(O)c3c(c(O)c1C2=O)C[C@@](O)(C(=O)CO)C[C@@H]3O[C@H]1C[C@H](N)[C@H](O)[C@H](C)O1 [DOXORUBICIN HYDROCHLORIDE]
IC50 (A549 [8]): 310 nM

SMILES: COC1=C(C)C(=O)C2=C(C1=O)[C@H](CO)N1[C@@H](C#N)[C@@H]3C(=O)c4c(O)c(C)c(OC)c(O)c4[C@H]([C@@H]1C2)N3C
IC50 (QG-56 [6]): 448 nM
IC50 (DU-145 [9]): 448 nM
IC50 (HCT-116 [7]): 448 nM

IC50 (HCT-116 [10]): 27.3 nM
IC50 (MDA-MB-435): 16.3 nM
SMILES: CCC(=O)OC[C@H]1C2=C(C[C@H]3[C@H]4C5=C(C[C@@H]([C@H](C#N)N13)N4C)C(=O)C(C)=C(OC)C5=O)C(=O)C(C)=C(OC)C2=O [JORUNNAMYCIN C]
IC50 (QG-56 [6]): 2.8 nM
IC50 (DU-145 [9]): 0.32 nM
IC50 (HCT-116 [7]): 1.5 nM

SMILES: C/C=C(/C)C(=O)OC[C@H]1c2c(c(OC(C)=O)c(C)c3c2OCO3)C[C@H]2[C@H]3C4=C(C[C@@H]([C@H](C#N)N12)N3C)C(=O)C(C)=C(OC)C4=O
IC50 (ASPC1): 120 nM
IC50 (T47D): 10 nM
IC50 (HCT-116 [3]): 34 nM
IC50 (QG-56 [4]): 79 nM

SMILES: COC1=C(C)C(=O)C2=C(C1=O)[C@H]1CN(C)[C@@H](C#N)[C@H](C2)N1C
IC50 (HCT-116 [3]): 84 nM
IC50 (QG-56 [4]): 240 nM

IC50 (NCI-H292): 3.56 nM
SMILES: COC1=C(C)C(=O)C2=C(C1=O)[C@@H]1[C@@H]3CC4=C(C(=O)C(OC)=C(C)C4=O)[C@H](COC(=O)CNC(=O)OC(C)(C)C)N3[C@@H](C#N)[C@H](C2)N1C

IC50 (KB): 2.12 nM
IC50 (MCF7): 2.12 nM
IC50 (A2780): 2.12 nM
IC50 (Bel-7402): 2.12 nM
IC50 (HeLa): 2.12 nM
IC50 (HCT-8): 2.12 nM
IC50 (BGC-823): 2.12 nM
SMILES: COC1=C(C)C(=O)C2=C(C1=O)[C@@H]1[C@@H]3CC4=C(C(=O)C(OC)=C(C)C4=O)[C@H](COC(=O)C(=O)CNC(=O)c4ccccc4)N3[C@@H](C#N)[C@H](C2)N1C
IC50 [11]: 2.12 nM
IC50 (A549 [8]): 2.12 nM
IC50 (KETR3): 2.12 nM
